Results as given in patent US20240279227A1, “FUSED HETEROCYCLIC DERIVATIVES” (Janssen Sciences Ireland Unlimited Company, priority 2021, published 2024).

How the values were obtained:
[1] = Cytotoxicity, ATPlite Luminescence Assay; format: cell-based, human; settings: human, HepG2 or HepG2.117 cells, 3-days incubation unless marked with *, ATPlite viability
Experimental: Cytotoxicity of the compounds was tested using HepG2 or HepG2.117 cells, incubated for 3 or 4 days in the presence of compounds. The viability of the cells was assessed using the PERKIN ELMER ATPlite Luminescence Assay System.”

HBV = assay: Anti-HBV activity in HepG2.117 cell line (intracellular HBV DNA, real-time PCR); format: cell-based, hepatitis B virus; settings: HepG2.117 cells, HBV replication induced, 3 days of treatment, intracellular HBV DNA by real-time PCR
Experimental: The anti HBV activity was measured using the HepG2.117 cell line, a stable, inducibly HBV producing cell line, which replicates HBV in the absence of doxycycline (Tet-off system). The HepG2 cell line is available from ATCCR under number HB-8065. Transfection of the HepG2 cell line can be as described in Sun and Nassal 2006 Journal of Hepatology 45 (2006) 636-645 “Stable HepG2-and Huh7-based human hepatoma cell lines for efficient regulated expression of infectious hepatitis B virus”.
For the antiviral assay, HBV replication was induced, followed by a treatment with serially diluted compound in 96-well plates. After 3 days of treatment, the antiviral activity was determined by quantification of intracellular HBV DNA using real-time PCR and an HBV specific primer set and probe.

[2] = Human liver microsome stability; format: in vitro ADME; settings: human, pooled human liver microsomes, pH 7.4, pooled human liver microsomes 0.5 mg/mL, 1 μM compound, NADPH 1 mM, pH 7.4, 37° C., 0-60 min; read-out: HLM Metabolism t1/2
Experimental: Pooled human liver microsomes (0.5 mg/mL) was pre-incubated with 1 μM test compounds or control compounds (verapamil, warfarin and cerivastatin) in 0.1 M phosphate buffer pH 7.4 containing 1 mM MgCl2 at 37° C. The final concentration of DMSO and acetonitrile are 0.05% and 0.2%, respectively. All incubations are performed singularly for each compound. NADPH was added to initiate the reaction with the final concentration of 1 mM and the final incubation volume of 400 μL.
At 6 time points (0, 5, 10, 20, 40 and 60 min) reactions were stopped by the removal of 50 μL of the incubation mixture into plates containing acetonitrile at a of 1:3 (v:v). The plates were centrifuged at 3000 rpm for 10 min at 4° C. to precipitate the protein. Following protein precipitation, the sample supernatants were combined in cassettes of up to 8 compounds. The internal standard was added (1:1 supernatant to internal standard solution) and samples were analyzed using standard LC-MS conditions.
From a plot of ln peak area ratio (compound peak area/internal standard peak area) against time, the gradient of the line is determined. Subsequently, half-life is calculated using the equations below: […]

[3] = Hepatitis B virus, HepG2.117, 72 h

Row | Compound | CC50 [1] | EC50 (HBV; [3]) | half-life at 1 μM [2] | EC50 (HBV)
1 | CNC(=O)[C@@H]1CN([C@H](C)c2ccc(C(F)(F)F)nc2)C(=O)c2c3c(nn21)C[C@@H](C)N(C(=O)c1ccc(Cl)c(Cl)c1)C3 [Compound 13A, (3R,7S)-2-(3,4-Dichlorobenzoyl)-N,3-dimethyl-10-oxo-9-((R)-1-(6-(trifluoromethyl)pyridin-3-yl)ethyl)-1,2,3,4,7,8,9,10-octahydropyrido[4′,3′:3,4]pyrazolo[1,5-a]pyrazine-7-carboxamide] | > 50 µM | 0.34 µM | > 3 h | –
2 | CNC(=O)[C@@H]1CN(C(C)c2ccc(-c3c(C)noc3C)nc2)C(=O)c2c3c(nn21)C[C@@H](C)N(C(=O)c1ccc(Cl)c(Cl)c1)C3 (single isomer, unassigned) [Compound 35A, (3R,7S)-2-(3,4-Dichlorobenzoyl)-9-((R*)-1-(6-(3,5-dimethylisoxazol-4-yl)pyridin-3-yl)ethyl)-N,3-dimethyl-10-oxo-1,2,3,4,7,8,9,10-octahydropyrido[4′,3′:3,4]pyrazolo[1,5-a]pyrazine-7-carboxamide] | > 50 µM | – | 1.16 h | 0.39 µM
3 | CNC(=O)[C@@H]1CN(C(C)c2ccc(C(F)F)nc2)C(=O)c2c3c(nn21)C[C@@H](C)N(C(=O)c1ccc(Cl)c(Cl)c1)C3 (single isomer, unassigned) [Compound 36A, (3R,7S)-2-(3,4-Dichlorobenzoyl)-9-((R*)-1-(6-(difluoromethyl)pyridin-3-yl)ethyl)-N,3-dimethyl-10-oxo-1,2,3,4,7,8,9,10-octahydropyrido[4′,3′:3,4]pyrazolo[1,5-a]pyrazine-7-carboxamide] | > 50 µM | 0.086 µM | > 3 h | –
4 | CNC(=O)[C@@H]1CN([C@H](C)c2ccc(OC(F)F)cc2)C(=O)c2c3c(nn21)C[C@@H](C)N(C(=O)c1ccc(Cl)c(Cl)c1)C3 [Compound 16A, (3R,7S)-2-(3,4-dichlorobenzoyl)-9-((R)-1-(4-(difluoromethoxy)phenyl)ethyl)-N,3-dimethyl-10-oxo-1,2,3,4,7,8,9,10-octahydropyrido[4′,3′:3,4]pyrazolo[1,5-a]pyrazine-7-carboxamide] | 40.4 µM | 0.021 µM | > 3 h | –
5 | CNC(=O)[C@@H]1CN(C(C)c2ccc(C#N)cc2)C(=O)c2c3c(nn21)C[C@@H](C)N(C(=O)c1ccc(Cl)c(Cl)c1)C3 (single isomer, unassigned) [Compound 23A, (3R,7S)-9-((R*)-1-(4-Cyanophenyl)ethyl)-2-(3,4-dichlorobenzoyl)-N,3-dimethyl-10-oxo-1,2,3,4,7,8,9,10-octahydropyrido[4′,3′:3,4]pyrazolo[1,5-a]pyrazine-7-carboxamide] | > 50 µM | – | > 3 h | 0.06 µM
6 | C[C@@H]1Cc2nn3c(c2CN1C(=O)c1ccc(Cl)c(Cl)c1)C(=O)N([C@@H](C)c1ccc(C#N)cc1)CC3 [Ref 5, reference compound] | – | 0.022 µM | 0.132 h | –
7 | CNC(=O)[C@@H]1CN([C@@H](C)c2ccc(C(F)(F)F)nc2)C(=O)c2c3c(nn21)C[C@@H](C)N(C(=O)c1ccc(Cl)c(C(F)(F)F)c1)C3 [Compound 15B, (3R,7S)-2-(4-chloro-3-(trifluoromethyl)benzoyl)-N,3-dimethyl-10-oxo-9-((S)-1-(6-(trifluoromethyl)pyridin-3-yl)ethyl)-1,2,3,4,7,8,9,10-octahydropyrido[4′,3′:3,4]pyrazolo[1,5-a]pyrazine-7-carboxamide] | 29.8 µM | 0.029 µM | > 3 h | –
8 | CNC(=O)[C@@H]1CN(C(C)c2ccc(C3CC3)nc2)C(=O)c2c3c(nn21)C[C@@H](C)N(C(=O)c1ccc(Cl)c(Cl)c1)C3 (single isomer, unassigned) [Compound 32A, (3R,7S)-9-((R*)-1-(6-Cyclopropylpyridin-3-yl)ethyl)-2-(3,4-dichlorobenzoyl)-N,3-dimethyl-10-oxo-1,2,3,4,7,8,9,10-octahydropyrido[4′,3′:3,4]pyrazolo[1,5-a]pyrazine-7-carboxamide] | > 50 µM | – | 2.12 h | 0.055 µM
9 | CNC(=O)[C@@H]1CN([C@@H](C)c2ccc(C(F)(F)F)nc2)C(=O)c2c3c(nn21)C[C@@H](C)N(C(=O)c1ccc(Cl)c(Cl)c1)C3 [Compound 13B, (3R,7S)-2-(3,4-dichlorobenzoyl)-N,3-dimethyl-10-oxo-9-((S)-1-(6-(trifluoromethyl)pyridin-3-yl)ethyl)-1,2,3,4,7,8,9,10-octahydropyrido[4′,3′:3,4]pyrazolo[1,5-a]pyrazine-7-carboxamide] | 46.8 µM | 0.033 µM | > 3 h | –
10 | CNC(=O)[C@@H]1CN(C(C)c2ccc(N3CCCC3=O)nc2)C(=O)c2c3c(nn21)C[C@@H](C)N(C(=O)c1ccc(Cl)c(Cl)c1)C3 (single isomer, unassigned) [Compound 34A, (3R,7S)-2-(3,4-Dichlorobenzoyl)-N,3-dimethyl-10-oxo-9-((R*)-1-(6-(2-oxopyrrolidin-1-yl)pyridin-3-yl)ethyl)-1,2,3,4,7,8,9,10-octahydropyrido[4′,3′:3,4]pyrazolo[1,5-a]pyrazine-7-carboxamide] | > 50 µM | 0.38 µM | 1.83 h | –
11 | CNC(=O)[C@@H]1CN(Cc2ccc(OC(F)F)cc2)C(=O)c2c3c(nn21)C[C@@H](C)N(C(=O)c1ccc(Cl)c(Cl)c1)C3 [Compound 17, (3R,7S)-2-(3,4-Dichlorobenzoyl)-9-(4-(difluoromethoxy)benzyl)-N,3-dimethyl-10-oxo-1,2,3,4,7,8,9,10-octahydropyrido[4′,3′:3,4]pyrazolo[1,5-a]pyrazine-7-carboxamide] | 39.1 µM | 0.036 µM | > 3 h | –
12 | CNC(=O)[C@@H]1CN(C(C)c2ccc(-n3ncnc3C)cn2)C(=O)c2c3c(nn21)C[C@@H](C)N(C(=O)c1ccc(Cl)c(Cl)c1)C3 (single isomer, unassigned) [Compound 41A, (3R,7S)-2-(3,4-Dichlorobenzoyl)-N,3-dimethyl-9-((R*)-1-(5-(5-methyl-1H-1,2,4-triazol-1-yl)pyridin-2-yl)ethyl)-10-oxo-1,2,3,4,7,8,9,10-octahydropyrido[4′,3′:3,4] pyrazolo[1,5-a]pyrazine-7-carboxamide] | > 50 µM | – | > 3 h | 2.21 µM
13 | C[C@@H]1Cc2nn3c(c2CN1C(=O)c1ccc(Cl)c(Cl)c1)C(=O)N([C@H](C)c1ccc(C#N)cc1)CC3 [Ref 4, reference compound] | – | 0.076 µM | 0.225 h | –
14 | CNC(=O)[C@@H]1CN(C(C)c2ccccn2)C(=O)c2c3c(nn21)C[C@@H](C)N(C(=O)c1ccc(Cl)c(Cl)c1)C3 (single isomer, unassigned) [Compound 37A, (3R,7S)-2-(3,4-Dichlorobenzoyl)-N,3-dimethyl-10-oxo-9-((R*)-1-(pyridin-2-yl)ethyl)-1,2,3,4,7,8,9,10-octahydropyrido[4′,3′:3,4]pyrazolo[1,5-a]pyrazine-7-carboxamide] | > 50 µM | 0.089 µM | > 3 h | –
15 | C[C@@H]1Cc2nn3c(c2CN1C(=O)c1ccc(Cl)c(Cl)c1)C(=O)N([C@@H](C)c1ccc(OC(F)F)cc1)CC3 [Ref 2, reference compound] | 19.8 µM | 0.026 µM | 0.117 h | –
16 | CNC(=O)[C@@H]1CN([C@@H](C)c2ccc(OC(F)F)cc2)C(=O)c2c3c(nn21)C[C@@H](C)N(C(=O)c1ccc(Cl)c(C(F)(F)F)n1)C3 [Compound 45, (3R,7S)-2-(5-Chloro-6-(trifluoromethyl)picolinoyl)-9-((S)-1-(4-(difluoromethoxy)phenyl)ethyl)-N,3-dimethyl-10-oxo-1,2,3,4,7,8,9,10-octahydropyrido[4′,3′:3,4]pyrazolo[1,5-a]pyrazine-7-carboxamide] | 49.8 µM | 0.067 µM | > 3 h | –
17 | CC(c1ccccn1)N1CCn2nc3c(c2C1=O)CN(C(=O)c1ccc(Cl)c(Cl)c1)[C@H](C)C3 (mixture of isomers) [Ref 3, reference compound] | – | 0.072 µM | 0.11 h | –
